What is called IC50 is the concentration that gives 50% inhibition.

Experiment [1] has as its system bone marrow derived mast cells (BMMC). Kind of experiment: BMMC high cell density IgE activation: hexosaminidase. The following applies: anti-IgE, second part of TABLE 1, read-out: BMMC anti-IgE hexos. IC50. It counts as cell-based, mouse. In a few lines: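 IgE-sensitized BMMC at 1-3×10^6 cells/ml preincubated 1 hour at 37° C. with compound (0.5% DMSO), then stimulated 1 hour with DNP-BSA (6× stimulus 60 ng/ml). Supernatant hexosaminidase measured with 2 mM 4-methylumbelliferyl-N-acetyl-glucosaminide substrate at 37° C., read at 5–30 minutes.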

Experiment [2] concerns basophil cells. Kind of experiment: Basophil IgE activation: histamine release assay. It counts as cell-based, human. The following applies: Basophils, anti-IgE. As for the experimental part: (§1) The basophil activation assay was carried out using whole human peripheral blood from donors allergic to dust mites with the majority of the red blood cells removed by dextran sedimentation. Human peripheral blood was mixed 1:1 with 3% dextran T500 and RBCs were allowed to settle for 20-25 min. The upper fraction was diluted with 3 volumes of D-PBS and cells were spun down for 10 min at 1500 rpm, RT. Supernatant was aspirated and cells were washed in an equal volume MT-buffer. Finally, cells were resuspended in MT-buffer containing 0.5% DMSO in the original blood volume. 80 uL cells were mixed with 20 uL compound in the presence of 0.5% DMSO, in triplicate, in a V-bottom 96-well tissue culture plate. A dose range of 8 compound concentrations was tested resulting in a 10-point dose response curve including maximum (stimulated) and minimum (unstimulated) response. […] The cells were stimulated for 30 minutes at 37° C., 5% CO2. The plate was spun for 10 min at 1500 rpm at room temperature and 80 uL the supernatant was harvested for histamine content analysis using the histamine ELISA kit supplied by Immunotech. The ELISA was performed according to supplier's instructions.

Experiment [3] relates to basophil cells. As to the kind of experiment: Basophil ionomycin activation: histamine release assay. The experiment is classed as cell-based, human. The following applies: Basophils. The procedure:
as §1
Assays for ionomycin-induced basophil cell degranulation were carried out as described for the Basophil IgE or Dustmite Activation Assay (Section 6.4.6, supra), with the exception that following incubation with compound, cells were stimulated with 20 μl of 2 μM ionomycin.

The subject of experiment [4] is cultured human mast cells (CHMC). As to the kind of experiment: CHMC low cell density anti-IgE activation: hexosaminidase (Hexos.) release. The experiment is classed as cell-based.
Experiment [5] has as its system bone marrow derived mast cells (BMMC). As to the kind of experiment: BMMC high cell density ionomycin activation: hexosaminidase. It counts as cell-based, mouse. Particulars: second part of TABLE 1, read-out: BMMC Ionomycin hexos. IC50.
Experiment [6] has as its system cultured human mast cells (CHMC). Kind of experiment: CHMC low cell density ionomycin activation: hexosaminidase (Hexos.) release. It counts as cell-based.

With `Fc1cnc(Nc2ccc(N3CCOCC3)cc2)nc1Nc1ccc(N2CCOCC2)cc1` [R926114, N2,N4-Bis[4-(N-morpholino)phenyl]-5-fluoro-2,4-pyrimidinediamine], the half-maximal inhibitory concentration (IC50) in experiment [1] is greater than 10 µM; in the experiment on basophil cells [2], 1.7 µM; with basophil cells [3], 10 µM; in experiment [4], 3.43 µM; in experiment [5], greater than 10 µM; in experiment [6] it was 8.1 µM.
